Assay results as given in PubChem BioAssay (NCI).
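Dose response: 5 concentrations. Exposure: 48 h. Format: 96-well plates. Endpoint: linear interpolation; highest concentration if not reached. GI50 marks 50% less growth. TGI is the concentration that stops growth completely.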

Experiments:
Experiment in all cases: NCI anticancer screen, dose series, 48 h
M14 melanoma = system: M14 melanoma
NCI-H460 lung = system: NCI-H460 lung
UACC-257 melanoma = system: UACC-257 melanoma
SNB-75 CNS = system: SNB-75 CNS
T-47D breast = system: T-47D breast
KM12 colon = system: KM12 colon
SK-MEL-2 melanoma = system: SK-MEL-2 melanoma
SNB-19 CNS = system: SNB-19 CNS
SF-539 CNS = system: SF-539 CNS
SW-620 colon = system: SW-620 colon

SMILES	GI50 (M14 melanoma)	TGI (M14 melanoma)	GI50 (NCI-H460 lung)	TGI (NCI-H460 lung)	GI50 (UACC-257 melanoma)	TGI (UACC-257 melanoma)	GI50 (SNB-75 CNS)	TGI (SNB-75 CNS)	GI50 (T-47D breast)	TGI (T-47D breast)	GI50 (KM12 colon)	TGI (KM12 colon)	GI50 (SK-MEL-2 melanoma)	TGI (SK-MEL-2 melanoma)	GI50 (SNB-19 CNS)	TGI (SNB-19 CNS)	GI50 (SF-539 CNS)	TGI (SF-539 CNS)	GI50 (SW-620 colon)	TGI (SW-620 colon)
COc1cc(N=Nc2cc(Cc3ccc(N(C)C)cc3)c(N)cc2N(C)C)c2ncccc2c1	0.34 µM	1.58 µM	0.519 µM	1.91 µM	0.438 µM	5.22 µM	0.574 µM	2.04 µM	0.211 µM	2 µM	0.646 µM	2.31 µM	0.562 µM	4.17 µM	0.577 µM	3.71 µM	0.705 µM	2.06 µM	0.374 µM	2.16 µM
O=c1c(I)c[nH]cc1I	> 100 µM	> 100 µM	> 100 µM	> 100 µM	> 100 µM	> 100 µM	> 100 µM	> 100 µM	> 100 µM	> 100 µM	> 100 µM	> 100 µM	> 100 µM	> 100 µM	> 100 µM	> 100 µM	> 100 µM	> 100 µM	> 100 µM	> 100 µM
CN1C2C=CC(=O)C1C1C(=O)N(c3ccccc3)C(=O)C12 (stereo not given)	9.8 µM	24.6 µM	12.7 µM	28.9 µM	2.42 µM	7.47 µM	13 µM	29.2 µM	5.65 µM	22.6 µM	5.17 µM	18.4 µM	8.12 µM	42 µM	13.3 µM	29.5 µM	4.87 µM	17.7 µM	3.09 µM	10.7 µM
C=C1C(=O)OC2CC(C)C(/C=C/C(C)=O)=CCC12 (stereo not given)	–	> 100 µM	–	> 100 µM	–	> 100 µM	–	> 100 µM	–	> 100 µM	–	> 100 µM	–	> 100 µM	–	> 100 µM	–	> 100 µM	–	> 100 µM
O=c1[nH]c2cc(Cl)ccc2nc1/C(=N\Nc1ccccc1)C(O)c1ccc2c(c1)OCO2 (stereo not given)	–	> 100 µM	–	> 100 µM	–	> 100 µM	–	> 100 µM	–	> 100 µM	–	> 100 µM	–	> 100 µM	–	> 100 µM	–	> 100 µM	–	> 100 µM
Cc1nc2c(C)ccc([N+](=O)[O-])c2c(NCCCN(C)C)c1C	–	37.6 µM	–	> 100 µM	–	54.5 µM	–	> 100 µM	–	> 100 µM	–	> 100 µM	–	> 70.6 µM	–	> 100 µM	–	> 100 µM	–	> 53 µM
Cc1cc(NC(=O)NCc2ccc(N3C(N)=NC(N)=NC3(C)C)cc2)ccc1S(=O)(=O)F	1.51 µM	> 100 µM	0.252 µM	> 75.6 µM	33.6 µM	> 100 µM	> 32.3 µM	> 100 µM	15.7 µM	> 100 µM	0.665 µM	> 100 µM	45 µM	> 100 µM	11.7 µM	> 100 µM	2.38 µM	> 69.2 µM	0.491 µM	> 100 µM
CCCCNc1ncnc2c1cnn2-c1ccccc1	1.42 µM	> 45.8 µM	1.61 µM	> 43.1 µM	11 µM	> 83.8 µM	2.11 µM	39.9 µM	3.71 µM	52.8 µM	0.474 µM	27.2 µM	2.82 µM	> 100 µM	8.69 µM	> 100 µM	4.05 µM	> 100 µM	0.709 µM	> 100 µM
O=S(=O)(c1ccccc1)N1CCCC(c2ccccc2)CC1 (stereo not given)	–	> 100 µM	–	> 100 µM	–	> 100 µM	–	94.6 µM	–	> 100 µM	–	> 100 µM	–	> 100 µM	–	> 100 µM	–	> 100 µM	–	> 100 µM
CC(C)(C)N/N=C(/Cc1nc2c3c(ccc2[nH]c1=O)C(=O)c1ccccc1C3=O)C(=O)NC1=C(Cl)C(=O)c2ccccc2C1=O	–	> 100 µM	–	31.3 µM	–	> 100 µM	–	9.03 µM	–	> 100 µM	–	8.83 µM	–	> 100 µM	–	> 100 µM	–	> 100 µM	–	> 100 µM
CCSC[C@@H]1C[C@](O)(c2ccccc2)[C@@H](c2ccccc2)O1	> 90.1 µM	> 100 µM	> 76.1 µM	> 100 µM	> 82.3 µM	> 100 µM	61.4 µM	> 100 µM	49 µM	> 100 µM	> 75.8 µM	> 100 µM	> 100 µM	> 100 µM	> 100 µM	> 100 µM	> 100 µM	> 100 µM	> 100 µM	> 100 µM
Clc1ccc(C=Nc2ccc(-c3nc4ccccc4[nH]3)cc2)cc1	> 100 µM	> 100 µM	> 100 µM	> 100 µM	> 100 µM	> 100 µM	77.7 µM	> 100 µM	55.1 µM	> 100 µM	> 100 µM	> 100 µM	> 100 µM	> 100 µM	55.6 µM	> 100 µM	> 100 µM	> 100 µM	> 100 µM	> 100 µM
COc1cc2ncn(-c3cc(OCc4ccccc4C(F)(F)F)c(C(N)=O)s3)c2cc1OC	0.141 µM	> 25 µM	0.101 µM	> 25 µM	> 5.96 µM	> 25 µM	2.7 µM	9.31 µM	4.42 µM	> 25 µM	0.0958 µM	> 25 µM	0.207 µM	12.3 µM	2.4 µM	> 19.3 µM	0.139 µM	> 11.6 µM	0.0822 µM	> 25 µM
CCn1c(-c2nonc2N)nc2ccccc21	> 25 µM	> 25 µM	> 25 µM	> 25 µM	> 25 µM	> 25 µM	> 25 µM	> 25 µM	> 25 µM	> 25 µM	> 25 µM	> 25 µM	> 25 µM	> 25 µM	> 25 µM	> 25 µM	> 25 µM	> 25 µM	> 25 µM	> 25 µM
O=[N+]([O-])c1ccccc1N=Nc1c(O)[nH]c2c(Cl)cccc12	–	> 100 µM	–	38.4 µM	–	> 42.5 µM	–	51.7 µM	–	> 75 µM	–	> 80.3 µM	–	> 100 µM	–	> 79.3 µM	–	> 100 µM	–	> 79 µM
